ChEMBL document CHEMBL5291721, “A preclinical secondary pharmacology resource illuminates target-adverse drug reaction associations of marketed drugs” (Nat Commun, 2023)

Assays:
[1] = biological target: T1, Alpha-2A adrenergic receptor (Homo sapiens, UniProt P08913); format: functional, cell-based
T1 sequence (P08913 whole entry): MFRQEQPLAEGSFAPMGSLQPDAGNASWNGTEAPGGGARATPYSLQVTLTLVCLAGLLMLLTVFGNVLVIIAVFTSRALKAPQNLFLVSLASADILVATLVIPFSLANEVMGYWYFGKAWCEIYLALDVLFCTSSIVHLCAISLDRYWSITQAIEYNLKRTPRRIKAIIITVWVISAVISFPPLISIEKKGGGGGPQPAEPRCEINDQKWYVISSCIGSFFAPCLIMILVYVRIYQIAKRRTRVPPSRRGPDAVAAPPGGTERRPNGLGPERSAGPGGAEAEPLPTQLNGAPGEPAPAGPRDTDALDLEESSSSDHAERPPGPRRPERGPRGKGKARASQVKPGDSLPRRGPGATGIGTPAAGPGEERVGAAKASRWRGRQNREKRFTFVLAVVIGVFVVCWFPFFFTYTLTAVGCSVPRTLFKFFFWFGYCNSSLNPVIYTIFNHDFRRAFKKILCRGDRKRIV

B2 bradykinin receptor = biological target: T2, B2 bradykinin receptor (Homo sapiens, UniProt P30411)
T2 sequence (P30411 whole entry): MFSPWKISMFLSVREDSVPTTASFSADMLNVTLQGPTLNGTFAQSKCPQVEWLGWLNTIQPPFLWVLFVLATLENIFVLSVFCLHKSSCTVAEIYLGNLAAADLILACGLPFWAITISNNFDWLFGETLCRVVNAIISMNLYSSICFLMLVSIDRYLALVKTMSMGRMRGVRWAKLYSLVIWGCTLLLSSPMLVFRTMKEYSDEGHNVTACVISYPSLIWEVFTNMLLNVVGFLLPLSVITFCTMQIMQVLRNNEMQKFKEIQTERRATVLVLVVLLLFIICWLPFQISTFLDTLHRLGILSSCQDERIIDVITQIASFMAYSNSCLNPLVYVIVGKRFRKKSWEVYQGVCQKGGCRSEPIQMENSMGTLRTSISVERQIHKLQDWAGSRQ

Cannabinoid receptor 1 = Cannabinoid receptor 1 (Homo sapiens, UniProt P21554); format: functional, cell-based
Histamine H2 receptor = Histamine H2 receptor (Homo sapiens, UniProt P25021); format: functional, cell-based
Mu-type opioid receptor = Mu-type opioid receptor (Homo sapiens, UniProt P35372); experiment: biochemical; format: functional
[2] = biological target: T3, Equilibrative nucleoside transporter 1 (Homo sapiens, UniProt Q99808)
T3 sequence (Q99808 whole entry): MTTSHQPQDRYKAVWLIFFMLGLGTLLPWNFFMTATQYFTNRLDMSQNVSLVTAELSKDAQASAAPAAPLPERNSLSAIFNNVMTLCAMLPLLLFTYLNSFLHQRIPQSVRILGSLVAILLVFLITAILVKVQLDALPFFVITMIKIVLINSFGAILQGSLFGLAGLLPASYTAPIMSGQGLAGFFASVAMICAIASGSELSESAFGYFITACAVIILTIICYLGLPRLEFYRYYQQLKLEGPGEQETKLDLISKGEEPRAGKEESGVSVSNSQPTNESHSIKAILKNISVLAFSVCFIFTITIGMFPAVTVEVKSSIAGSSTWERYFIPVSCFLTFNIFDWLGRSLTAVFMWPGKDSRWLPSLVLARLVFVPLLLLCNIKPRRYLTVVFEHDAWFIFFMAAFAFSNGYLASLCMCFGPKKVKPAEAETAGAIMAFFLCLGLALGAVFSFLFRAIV

Thromboxane A2 receptor = biological target: T4, Thromboxane A2 receptor (Homo sapiens, UniProt P21731)
T4 sequence (P21731 whole entry): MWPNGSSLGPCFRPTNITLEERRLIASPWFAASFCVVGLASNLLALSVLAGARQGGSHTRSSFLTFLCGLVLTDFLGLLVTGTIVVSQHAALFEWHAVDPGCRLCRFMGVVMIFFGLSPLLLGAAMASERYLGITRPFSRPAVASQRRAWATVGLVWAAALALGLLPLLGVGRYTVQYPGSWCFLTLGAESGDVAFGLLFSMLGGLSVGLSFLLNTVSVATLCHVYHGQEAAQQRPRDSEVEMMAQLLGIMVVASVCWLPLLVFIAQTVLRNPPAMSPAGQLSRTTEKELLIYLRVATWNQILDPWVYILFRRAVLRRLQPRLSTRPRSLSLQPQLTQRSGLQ

[3] = biological target: T5, Amine oxidase [flavin-containing] A (Homo sapiens, UniProt P21397); format: functional
T5 sequence (P21397 whole entry): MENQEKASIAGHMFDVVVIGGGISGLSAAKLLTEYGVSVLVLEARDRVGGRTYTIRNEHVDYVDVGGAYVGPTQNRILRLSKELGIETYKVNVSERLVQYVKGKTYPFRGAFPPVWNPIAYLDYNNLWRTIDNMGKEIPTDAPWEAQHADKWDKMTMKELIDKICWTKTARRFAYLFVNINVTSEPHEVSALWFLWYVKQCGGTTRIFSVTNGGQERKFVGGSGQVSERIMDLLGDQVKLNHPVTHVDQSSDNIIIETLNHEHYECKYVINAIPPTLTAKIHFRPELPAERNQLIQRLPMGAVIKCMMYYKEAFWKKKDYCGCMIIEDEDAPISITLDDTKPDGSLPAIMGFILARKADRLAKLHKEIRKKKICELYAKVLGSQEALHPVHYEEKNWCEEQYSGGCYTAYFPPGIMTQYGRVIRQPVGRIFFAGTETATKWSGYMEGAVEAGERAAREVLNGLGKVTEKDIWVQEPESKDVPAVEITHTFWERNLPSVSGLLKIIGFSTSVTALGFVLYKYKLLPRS

Histamine H3 receptor = Histamine H3 receptor (Homo sapiens, UniProt Q9Y5N1)
[4] = biological target: T6, 5-hydroxytryptamine receptor 1A (Homo sapiens, UniProt P08908); format: functional, cell-based
T6 sequence (P08908 whole entry): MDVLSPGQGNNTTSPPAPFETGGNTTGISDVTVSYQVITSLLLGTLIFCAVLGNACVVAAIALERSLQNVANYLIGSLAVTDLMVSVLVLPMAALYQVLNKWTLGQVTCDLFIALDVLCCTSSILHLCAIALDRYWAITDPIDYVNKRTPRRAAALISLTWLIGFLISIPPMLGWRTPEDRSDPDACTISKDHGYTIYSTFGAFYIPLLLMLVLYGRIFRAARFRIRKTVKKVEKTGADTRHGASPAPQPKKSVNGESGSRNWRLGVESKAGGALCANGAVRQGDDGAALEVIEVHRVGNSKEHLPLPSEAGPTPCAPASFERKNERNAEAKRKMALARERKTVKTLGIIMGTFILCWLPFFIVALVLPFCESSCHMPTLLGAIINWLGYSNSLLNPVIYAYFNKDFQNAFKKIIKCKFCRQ

[5] = biological target: T6, 5-hydroxytryptamine receptor 1A; format: functional, cell-based; remark: listed apart in the source
Further: assay procedure not described here.

Sequence of Mu-type opioid receptor (P35372 whole entry): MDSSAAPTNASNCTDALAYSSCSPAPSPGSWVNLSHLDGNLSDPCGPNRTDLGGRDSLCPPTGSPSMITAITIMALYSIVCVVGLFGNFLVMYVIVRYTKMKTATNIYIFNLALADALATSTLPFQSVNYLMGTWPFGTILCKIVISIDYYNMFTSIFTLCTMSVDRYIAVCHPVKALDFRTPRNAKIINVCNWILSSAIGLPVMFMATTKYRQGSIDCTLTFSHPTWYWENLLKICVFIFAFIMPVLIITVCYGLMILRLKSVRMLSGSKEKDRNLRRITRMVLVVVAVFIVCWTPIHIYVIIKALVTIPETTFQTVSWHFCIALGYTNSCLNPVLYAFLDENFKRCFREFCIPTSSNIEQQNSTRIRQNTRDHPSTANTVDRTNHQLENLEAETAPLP
Sequence of Histamine H2 receptor (P25021 whole entry): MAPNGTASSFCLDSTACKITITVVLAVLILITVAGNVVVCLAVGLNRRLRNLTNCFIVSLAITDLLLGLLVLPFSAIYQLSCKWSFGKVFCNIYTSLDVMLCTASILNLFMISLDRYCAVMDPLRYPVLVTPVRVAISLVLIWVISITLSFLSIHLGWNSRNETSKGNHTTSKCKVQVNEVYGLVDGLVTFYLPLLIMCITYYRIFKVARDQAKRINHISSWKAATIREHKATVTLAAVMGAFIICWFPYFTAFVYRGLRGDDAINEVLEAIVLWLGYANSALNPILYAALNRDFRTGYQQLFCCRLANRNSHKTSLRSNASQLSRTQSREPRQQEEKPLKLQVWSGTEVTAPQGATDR
Sequence of Histamine H3 receptor (Q9Y5N1 whole entry): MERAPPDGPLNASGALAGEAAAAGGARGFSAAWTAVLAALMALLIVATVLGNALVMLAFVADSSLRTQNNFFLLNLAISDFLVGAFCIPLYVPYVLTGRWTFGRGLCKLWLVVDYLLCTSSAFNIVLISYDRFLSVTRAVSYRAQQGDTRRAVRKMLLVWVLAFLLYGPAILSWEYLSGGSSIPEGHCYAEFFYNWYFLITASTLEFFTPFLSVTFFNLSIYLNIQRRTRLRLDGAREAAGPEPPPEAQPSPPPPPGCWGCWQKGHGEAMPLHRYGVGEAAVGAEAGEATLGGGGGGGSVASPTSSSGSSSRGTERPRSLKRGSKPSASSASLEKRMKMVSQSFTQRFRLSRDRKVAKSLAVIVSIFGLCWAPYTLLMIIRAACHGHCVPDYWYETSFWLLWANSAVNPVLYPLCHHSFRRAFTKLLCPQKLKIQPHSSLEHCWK
Sequence of Cannabinoid receptor 1 (P21554 whole entry): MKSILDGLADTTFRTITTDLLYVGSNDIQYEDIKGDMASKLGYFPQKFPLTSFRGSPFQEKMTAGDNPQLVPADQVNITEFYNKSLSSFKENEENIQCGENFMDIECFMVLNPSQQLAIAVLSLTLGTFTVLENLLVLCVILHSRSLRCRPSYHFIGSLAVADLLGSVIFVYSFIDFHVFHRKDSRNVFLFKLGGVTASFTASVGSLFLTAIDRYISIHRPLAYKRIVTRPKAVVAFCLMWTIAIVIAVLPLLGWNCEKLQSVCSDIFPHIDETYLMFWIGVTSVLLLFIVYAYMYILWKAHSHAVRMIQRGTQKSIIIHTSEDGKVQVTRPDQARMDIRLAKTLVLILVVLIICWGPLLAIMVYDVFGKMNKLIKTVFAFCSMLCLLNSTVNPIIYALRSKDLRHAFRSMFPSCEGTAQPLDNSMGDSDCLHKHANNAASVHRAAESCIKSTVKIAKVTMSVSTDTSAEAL

| SMILES | AC50 [1] [µM] | AC50 (B2 bradykinin receptor) [µM] | AC50 (Cannabinoid receptor 1) [µM] | AC50 (Histamine H2 receptor) [µM] | AC50 (Mu-type opioid receptor) [µM] | AC50 [2] [µM] | AC50 (Thromboxane A2 receptor) [µM] | AC50 [3] [µM] | AC50 (Histamine H3 receptor) [µM] | AC50 [4] [µM] | AC50 [5] [µM] |
| --- | --- | --- | --- | --- | --- | --- | --- | --- | --- | --- | --- |
| COc1ccccc1N1CCN(CCCNc2cc(=O)n(C)c(=O)n2C)CC1 | 11 | > 30 | > 30 | > 30 | > 30 | > 30 | > 30 | > 30 | > 30 | – | – |
| CC(=O)O[C@H]1CC[C@@]2(C)C(=CC[C@@H]3[C@@H]2CC[C@]2(C)C(c4cccnc4)=CC[C@@H]32)C1 [ABIRATERONE ACETATE] | > 30 | – | > 30 | > 30 | > 30 | > 30 | > 30 | > 30 | > 30 | > 30 | – |
| NCC(=O)CCC(=O)O [AMINOLEVULINIC ACID] | > 30 | > 30 | > 30 | > 30 | > 30 | – | > 30 | > 30 | > 30 | > 30 | – |
| CCOC(=O)OC(C)OC1=C(C(=O)Nc2ccccn2)N(C)S(=O)(=O)c2ccccc21 (stereo unspecified) [AMPIROXICAM] | > 30 | > 30 | > 30 | > 30 | > 30 | > 30 | > 30 | > 30 | > 30 | > 30 | – |
| COC(=O)C1=C(C)NC(C)=C(C(=O)OC2CCCN(Cc3ccccc3)C2)C1c1cccc([N+](=O)[O-])c1 (stereo unspecified) [BENIDIPINE] | > 30 | > 30 | 16 | > 30 | > 30 | 8.2 | > 30 | > 30 | > 30 | > 30 | – |
| CCN1CCN(C(=O)N[C@@H](C(=O)N[C@@H]2C(=O)N3C(C(=O)O)=C(CSc4nnnn4C)CS[C@H]23)c2ccc(O)cc2)C(=O)C1=O [CEFOPERAZONE] | > 30 | > 30 | > 30 | > 30 | > 30 | > 30 | – | > 30 | > 30 | > 30 | > 30 |
| CC(=O)OCC(=O)[C@@]12N=C(C)O[C@@H]1C[C@H]1[C@@H]3CCC4=CC(=O)C=C[C@]4(C)[C@H]3[C@@H](O)C[C@@]12C [DEFLAZACORT] | > 30 | > 30 | > 30 | > 30 | > 30 | > 30 | > 30 | > 30 | > 30 | > 30 | – |
| CCCCCCOc1ccccc1C(N)=O [EXALAMIDE] | > 30 | > 30 | > 30 | > 30 | > 30 | > 30 | > 30 | > 30 | > 30 | > 30 | – |
| CCN(CC)C(=O)N[C@H]1C[C@@H]2c3cccc4[nH]cc(c34)C[C@H]2N(C)C1 [TERGURIDE] | 0.018 | > 30 | > 30 | 15 | > 30 | > 30 | – | > 30 | > 30 | 0.18 | – |

Next, values leading:

| AC50 [1] [µM] | AC50 (B2 bradykinin receptor) [µM] | AC50 (Cannabinoid receptor 1) [µM] | AC50 (Histamine H2 receptor) [µM] | AC50 (Mu-type opioid receptor) [µM] | AC50 [2] [µM] | AC50 (Thromboxane A2 receptor) [µM] | AC50 [3] [µM] | AC50 (Histamine H3 receptor) [µM] | AC50 [4] [µM] | AC50 [5] [µM] | SMILES |
| --- | --- | --- | --- | --- | --- | --- | --- | --- | --- | --- | --- |
| > 30 | > 30 | > 30 | > 30 | > 30 | > 30 | > 30 | – | > 30 | > 30 | – | CC(C)C(=O)c1c(C(C)C)nn2ccccc12 [IBUDILAST] |
| > 30 | > 30 | > 30 | > 30 | > 30 | – | > 30 | > 30 | > 30 | > 30 | – | Nc1nc(N)nc(-c2cc(Cl)ccc2Cl)n1 [IRSOGLADINE] |
| > 30 | > 30 | > 30 | > 30 | > 30 | > 30 | > 30 | – | > 30 | > 30 | – | CCOC(=O)[N-]c1cn(N2CCOCC2)n[o+]1 [MOLSIDOMINE] |
| 8.1 | > 30 | 24 | > 30 | 3.3 | > 30 | > 30 | > 30 | 23 | 1.6 | – | OC(CNCC(O)C1CCc2cc(F)ccc2O1)C1CCc2cc(F)ccc2O1 (stereo unspecified) [NEBIVOLOL] |
| – | > 30 | > 30 | > 30 | > 30 | – | > 30 | > 30 | – | > 30 | > 30 | Clc1ccc(CCCOCCCN2CCCCC2)cc1 [PITOLISANT] |
| > 30 | > 30 | > 30 | > 30 | > 30 | > 30 | > 30 | > 30 | > 30 | > 30 | – | CC(CC(c1ccccc1)c1ccccc1)NC(C)(C)C (stereo unspecified) [TERODILINE] |
| > 30 | > 30 | > 30 | > 30 | > 30 | > 30 | > 30 | > 30 | 18 | > 30 | – | CC(=O)O[C@H]1C[C@@H]2CC[C@@H]3[C@H](CC[C@@]4(C)[C@H]3C[C@H]([N+]3(C)CCCCC3)[C@@H]4OC(C)=O)[C@@]2(C)C[C@@H]1N1CCCCC1 [VECURONIUM] |
